The structures appear in SMILES notation.

One experiment concerns S. aureus 272123. As to the kind of experiment: Efflux pump inhibition assay (real-time ethidium bromide accumulation). Format: cell-based, Staphylococcus aureus. The note with it: compound 50 µM, EB 1 µg/mL, minute 60. The procedure:
Compounds 1–20 were assessed for their capability of modulating ethidium bromide (EB) accumulation on two resistant strains. […] However, norA is a core gene of the S. aureus as a species, which means that the NorA pump occurs in all S. aureus strains.
(§1) Salmonella enterica serovar Typhimurium SE03, was used as a Gram-negative bacterium. This strain has a deletion of the acrA gene, which was predicted with the least affinity for the compounds. The aim of these studies was to perform a first screening of these compounds and their ability to modulate the efflux of EB. […] The relative fluorescence index (RFI) was calculated based on the means of relative fluorescence units, depicted in Table 2.
(§2) Compounds 1–20 were evaluated for their ability to inhibit efflux pumps in SE03 and S. aureus 272123 strains, through the real-time fluorimetry, monitoring the intracellular accumulation of EB, an efflux pump substrate. This was determined by the automated method using a CLARIOstar Plus plate reader (BMG Labtech, Ortenberg, Germany). Reserpine and CCCP were applied at 25 µM as positive controls, and the solvent DMSO was applied at 1% v/v. The bacterial strains were incubated in an appropriate culture media (TSB—S. aureus 272123; LB-B—SE03) at 37 °C until they reached an optical density (OD) between 0.4 and 0.6 at λ = 600 nm. The culture was centrifuged at 13,000× g for 3 min, and the pellet washed and resuspended with PBS. The suspension was centrifuged again in the same conditions and resuspended in PBS. The compounds were applied at 50 µM in a solution of a non-toxic concentration of EB (1 µg/mL) in PBS. Then, 50 µL of this solution were transferred into a 96-well black microtiter plate (Greiner Bio-One Hungary Kft, Mosonmagyaróvár, Fertősor, Hungary), and 50 µL of bacterial suspension (OD600 0.4–0.6) were added to each well. The plates were placed into the CLARIOstar plate reader, and the fluorescence was monitored at excitation and emission wavelengths of 530 nm and 600 nm every minute for one hour on a real-time basis. From the real-time data, the activity of the compounds, namely the RFI of the last time point (minute 60) of the EB accumulation assay, was calculated according to the following formula:(1) RFI=RFtreated−RFuntreated/RFuntreated where RFtreated is the relative fluorescence (RF) at the last time point of EB accumulation curve in the presence of the compound, and RFuntreated is the RF at the last time point of the EB accumulation curve of the untreated control, having only the solvent (DMSO) control. The accumulation curves were designed using Microsoft Excel®.

The subject of experiment [1] is SE03 (acrA gene-inactivated Salmonella enterica serovar Typhimurium SL1344). Described as above. Format: cell-based. The following applies: compound 50 µM, EB 1 µg/mL, minute 60. As for the experimental part: as §1, §2

Turning to `COc1cc(C=O)c2c(=O)c3ccccc3oc2c1OC` [Compound 15], the “RFI ± SD (relative fluorescence index)” value was 0.08 ± 0.07 ^4 in the experiment on S. aureus 272123 and 0.13 ± 0.09 ^9 in experiment [1].
In the same order, the values of `COc1cc(C)c2c(=O)c3ccccc3oc2c1OC` [Compound 8] are 0.15 ± 0.25 ^4 and 0.05 ± 0.11 ^9.
In the same order, the values of `Cc1cc(O)c(O)c2oc3ccccc3c(=O)c12` [Compound 6] are −0.91 ± 0.01 ^4 and −0.91 ± 0.01 ^9.
Taken in the same sequence, the figures for `Cc1cc(O)c(O)c2oc3cc(O)ccc3c(=O)c12` [Compound 7] were −0.92 ± 0.00 ^5 and −0.87 ± 0.02 ^10.
In the case of `COc1c(Cl)c(C)c2c(=O)c3ccccc3oc2c1OC` [Compound 9], the “RFI ± SD (relative fluorescence index)” value in the experiment on S. aureus 272123 is recorded as −0.04 ± 0.26 ^4; in experiment [1] it was 0.05 ± 0.09 ^9.
With `COc1ccc2c(=O)c3c(C)cc(OC)c(OC)c3oc2c1` [Compound 10], the “RFI ± SD (relative fluorescence index)” value in the experiment on S. aureus 272123 is listed as 0.18 ± 0.20 ^5; in experiment [1], 0.24 ± 0.05 ^10.
Taken in the same sequence, the figures for `COc1cc(C=O)c2c(=O)c3ccccc3oc2c1O` [Compound 14] were −0.28 ± 0.06 ^2 and 0.02 ± 0.02 ^7.
Regarding `COC(=O)c1cc(OC)c(OC)c2oc3cc(OC)ccc3c(=O)c12` [Compound 17], the “RFI ± SD (relative fluorescence index)” value with S. aureus 272123 is given as −0.34 ± 0.02 ^5; in experiment [1], −0.29 ± 0.08 ^10.
In the same order, the values of `COc1ccc2c(=O)c3c(CBr)cc(OC)c(OC)c3oc2c1` [Compound 13] are 0.53 ± 0.20 ^5 and 1.16 ± 0.64 ^10.
Taken in the same sequence, the figures for `COc1cc(CNCc2ccc(Cl)cc2)c2c(=O)c3ccccc3oc2c1OC` [Compound 18] were −0.01 ± 0.04 ^3 and 0.04 ± 0.04 ^8.
In the same order, the values of `O=c1c2ccccc2oc2c(O)cccc12` [Compound 1] are −0.36 ± 0.03 ^1 and −0.01 ± 0.05 ^6.
In the case of `O=c1c2ccccc2oc2ccc(O)c(O)c12` [Compound 3], the “RFI ± SD (relative fluorescence index)” value with S. aureus 272123 is recorded as −0.05 ± 0.06 ^3; in experiment [1], 0.23 ± 0.04 ^8.
